Laboratory results published in ChEMBL document CHEMBL1137149, “Bile acid conjugates of a nonsteroidal glucocorticoid receptor modulator” (Bioorg Med Chem Lett, 2004).
pIC50: −log10 of the molar value.

How the values were obtained:
Glucocorticoid receptor [1] = target: T1, Glucocorticoid receptor (Homo sapiens, UniProt P04150)
T1 sequence (P04150 whole entry): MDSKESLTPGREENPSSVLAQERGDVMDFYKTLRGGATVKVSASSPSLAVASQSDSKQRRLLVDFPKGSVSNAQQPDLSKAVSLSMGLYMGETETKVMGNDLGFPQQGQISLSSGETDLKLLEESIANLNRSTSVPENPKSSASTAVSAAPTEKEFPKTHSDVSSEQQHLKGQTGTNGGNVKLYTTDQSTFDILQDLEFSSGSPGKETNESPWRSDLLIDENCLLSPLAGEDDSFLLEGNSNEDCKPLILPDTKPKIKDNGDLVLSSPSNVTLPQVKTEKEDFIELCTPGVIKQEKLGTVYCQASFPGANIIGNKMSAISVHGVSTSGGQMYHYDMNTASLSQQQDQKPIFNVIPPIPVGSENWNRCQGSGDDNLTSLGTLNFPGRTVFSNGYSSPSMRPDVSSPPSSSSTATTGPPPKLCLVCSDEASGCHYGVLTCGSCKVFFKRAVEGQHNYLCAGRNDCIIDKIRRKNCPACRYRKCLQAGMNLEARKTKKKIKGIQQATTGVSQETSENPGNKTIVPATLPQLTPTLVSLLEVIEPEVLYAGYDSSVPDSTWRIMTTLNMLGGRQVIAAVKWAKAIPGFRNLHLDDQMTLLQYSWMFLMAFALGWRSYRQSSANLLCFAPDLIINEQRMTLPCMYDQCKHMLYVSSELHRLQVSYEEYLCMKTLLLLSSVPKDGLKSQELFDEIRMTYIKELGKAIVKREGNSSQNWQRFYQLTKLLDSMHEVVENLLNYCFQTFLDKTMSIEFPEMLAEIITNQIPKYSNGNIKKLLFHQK

Glucocorticoid receptor [2] = target: T1, Glucocorticoid receptor; type: functional
Description: Inhibition of glucocorticoid receptor Dexamethasone response in reporter gene assay

[3] = target: T2, Hepatic sodium/bile acid cotransporter (Rattus norvegicus, UniProt P26435)
T2 sequence (P26435 whole entry): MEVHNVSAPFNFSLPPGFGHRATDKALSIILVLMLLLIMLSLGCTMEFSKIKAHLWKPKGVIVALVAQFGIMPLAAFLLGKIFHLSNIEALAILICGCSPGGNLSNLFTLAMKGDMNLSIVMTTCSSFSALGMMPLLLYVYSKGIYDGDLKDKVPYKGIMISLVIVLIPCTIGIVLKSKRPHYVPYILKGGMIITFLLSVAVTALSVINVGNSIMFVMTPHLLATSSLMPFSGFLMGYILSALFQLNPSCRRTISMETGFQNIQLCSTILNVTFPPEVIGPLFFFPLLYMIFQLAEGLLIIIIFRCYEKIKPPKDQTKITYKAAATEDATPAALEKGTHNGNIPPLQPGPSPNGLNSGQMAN

Glucocorticoid receptor [4] = target: T3, Glucocorticoid receptor (Rattus norvegicus, UniProt P06536); type: functional, cell-based; conditions: hepatocyte
T3 sequence (P06536 whole entry): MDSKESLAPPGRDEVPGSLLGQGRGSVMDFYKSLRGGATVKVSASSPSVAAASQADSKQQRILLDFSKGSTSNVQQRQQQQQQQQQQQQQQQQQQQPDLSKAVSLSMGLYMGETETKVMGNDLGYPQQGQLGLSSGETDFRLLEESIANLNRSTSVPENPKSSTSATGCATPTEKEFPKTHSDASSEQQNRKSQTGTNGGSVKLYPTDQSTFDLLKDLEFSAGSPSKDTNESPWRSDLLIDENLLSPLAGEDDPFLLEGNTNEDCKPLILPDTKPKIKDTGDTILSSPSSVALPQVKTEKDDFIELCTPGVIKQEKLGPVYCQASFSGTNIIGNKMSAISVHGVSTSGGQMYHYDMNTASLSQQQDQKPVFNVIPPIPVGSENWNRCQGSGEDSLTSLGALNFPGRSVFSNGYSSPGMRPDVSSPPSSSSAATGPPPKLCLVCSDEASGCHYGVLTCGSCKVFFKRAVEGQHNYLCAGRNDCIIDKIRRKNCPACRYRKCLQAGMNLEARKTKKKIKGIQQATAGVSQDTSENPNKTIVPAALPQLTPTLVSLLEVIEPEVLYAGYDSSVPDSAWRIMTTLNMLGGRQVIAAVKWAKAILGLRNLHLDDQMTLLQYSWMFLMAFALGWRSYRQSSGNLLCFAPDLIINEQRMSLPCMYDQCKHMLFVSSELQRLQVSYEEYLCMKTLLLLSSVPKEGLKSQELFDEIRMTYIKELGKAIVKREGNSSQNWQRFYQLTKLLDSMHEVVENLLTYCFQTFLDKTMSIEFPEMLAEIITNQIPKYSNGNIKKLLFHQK

Compound | pIC50 (Glucocorticoid receptor [1]) | pIC50 (Glucocorticoid receptor [2]) | pIC50 [3] | IC50 (Glucocorticoid receptor [4])
Cc1c(NS(C)(=O)=O)cccc1N(Cc1ccccc1)Cc1ccc(Oc2ccc(CCCC(=O)NCCO[C@H]3CC[C@@]4(C)[C@@H](C3)C[C@@H](O)[C@@H]3[C@@H]4C[C@H](O)[C@]4(C)[C@@H]([C@H](C)CCC(=O)O)CC[C@@H]34)cc2)cc1 | 7.30 | – | – | –
Cc1c(NS(C)(=O)=O)cccc1N(Cc1ccc(CCCC(=O)NCCO[C@@H]2CC[C@]3(C)[C@H](C2)C[C@H](O)[C@@H]2[C@@H]3C[C@@H](O)[C@]3(C)[C@H]2CC[C@H]3[C@@H](C)CCC(=O)O)cc1)Cc1ccc(Oc2ccccc2)cc1 | 6.59 | – | – | –
Cc1c(NS(C)(=O)=O)cccc1N(Cc1ccc(Oc2ccccc2)cc1)Cc1cccc(CCCC(=O)NCCO[C@H]2CC[C@@]3(C)[C@@H](C2)C[C@@H](O)[C@@H]2[C@@H]3C[C@H](O)[C@]3(C)[C@@H]([C@H](C)CCC(=O)O)CC[C@@H]23)c1 | 7.03 | – | – | –
Cc1c(NS(C)(=O)=O)cccc1N(Cc1ccc(Oc2ccc(CCC(=O)NCCO[C@@H]3CC[C@]4(C)[C@H](C3)C[C@H](O)[C@@H]3[C@@H]4C[C@@H](O)[C@]4(C)[C@H]3CC[C@H]4[C@@H](C)CCC(=O)O)cc2)cc1)Cc1ccc(F)cc1F | 6.57 | – | – | –
Cc1c(NS(C)(=O)=O)cccc1N(Cc1ccccc1)Cc1ccc(Oc2cccc(CCCC(=O)NCCO[C@@H]3CC[C@]4(C)[C@H](C3)C[C@H](O)[C@@H]3[C@@H]4C[C@@H](O)[C@]4(C)[C@H]3CC[C@H]4[C@@H](C)CCC(=O)O)c2)cc1 | 7.21 | 6.41 | – | –
Cc1c(NS(C)(=O)=O)cccc1N(Cc1ccccc1)Cc1ccc(Oc2ccc(CCC(=O)NCCO[C@@H]3CC[C@]4(C)[C@H](C3)C[C@H](O)[C@@H]3[C@@H]4C[C@@H](O)[C@]4(C)[C@H]3CC[C@H]4[C@@H](C)CCC(=O)O)cc2)cc1 | 7.77 | 6.35 | 8.40 | Not Active
Cc1c(NS(C)(=O)=O)cccc1N(Cc1ccccc1)Cc1ccc(Oc2cccc(OCC(=O)NCCO[C@H]3CC[C@@]4(C)[C@@H](C3)C[C@@H](O)[C@@H]3[C@@H]4C[C@H](O)[C@]4(C)[C@@H]([C@H](C)CCC(=O)O)CC[C@@H]34)c2)cc1 | 7.24 | 6.23 | – | –
Cc1c(NS(C)(=O)=O)cccc1N(Cc1ccccc1)Cc1ccc(CCC(=O)NCCO[C@H]2CC[C@@]3(C)[C@@H](C2)C[C@@H](O)[C@@H]2[C@@H]3C[C@H](O)[C@]3(C)[C@@H]([C@H](C)CCC(=O)O)CC[C@@H]23)cc1 | 6.25 | 6.51 | – | –
